Consider five compounds from PubChem BioAssay AID510.

Dehydrogenase/reductase SDR family member 6 (Homo sapiens), sequence (Q9BUT1 whole entry, looked up): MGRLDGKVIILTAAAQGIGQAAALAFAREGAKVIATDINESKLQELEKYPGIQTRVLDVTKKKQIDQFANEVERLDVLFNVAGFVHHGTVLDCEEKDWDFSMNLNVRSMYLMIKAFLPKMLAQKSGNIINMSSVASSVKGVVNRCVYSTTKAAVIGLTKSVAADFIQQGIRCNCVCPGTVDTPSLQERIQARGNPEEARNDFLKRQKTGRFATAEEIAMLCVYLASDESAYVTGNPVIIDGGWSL

This assay addresses Dehydrogenase/reductase SDR family member 6 (Homo sapiens) (UniProt Q9BUT1). Description: DHRS6 binders by thermal stabilisation, biophysical, DSF, SYPRO orange, purified human protein (AID 510). The following applies: at 100 µM, protein 2 µM, buffer 10 mM HEPES, pH 7.5, NaCl 150 mM, stronger effect = higher value.
With `O=C1C2(Cl)C3(Cl)C4(Cl)C(Cl)(Cl)C5(Cl)C3(Cl)C1(Cl)C5(Cl)C24Cl` (stereo not given), the Tm shift is 4.7 Celsius.
Regarding `O=c1oc2cc(O)ccc2c2oc3cc(O)ccc3c12`, the Tm shift amounted to 2.2 Celsius.
The result for `NC(=O)c1ccc[n+](C2OC(COP(=O)(O)OP(=O)(O)OCC3OC(n4cnc5c(N)ncnc54)C(O)C3O)C(O)C2O)c1` (stereo not given) reads 2.4 Celsius.
The result for `O=C(C1CCN(S(=O)(=O)c2cccnc2)CC1)N1CCN(C(c2ccccc2)c2ccc(Cl)cc2)CC1` (stereo not given) reads 2.2 Celsius; that for `C=CC1=C(C)/C(=C/c2[nH]c(Cc3[nH]c(/C=C4\NC(=O)C(C)=C4C=C)c(C)c3CCC(=O)O)c(CCC(=O)O)c2C)NC1=O`, 8.1 Celsius.
